The text below walks through data of patent publication US10344060B2 (priority 2013, dated 2019).

What is called IC50 is the point on the concentration scale where inhibition reaches its midpoint.

Common to all, as to assay: cell-based
The target of experiment [1] is T1, hNav1.7 (Homo sapiens, UniProt Q15858).
The target in experiment [2] is hNav1.5 (Homo sapiens, UniProt Q14524). The settings on record: read-out: IC50 (μM) Nav1.5.
Experiment [3] has as its target T1, hNav1.7. The class given is cell-based. The settings on record: read-out: PX hNav1.7 Tonic IC50.
The target of experiment [4] is hNav1.4 (Homo sapiens, UniProt P35499). The class given is cell-based. Particulars: Table 12; for IC50: PatchXpress, tonic block, read-out: PX hNav1.4 Tonic IC50; for Nav1.4/Nav1.7: ratio of PX tonic IC50 values.
Sequence of hNav1.4 (P35499 whole entry): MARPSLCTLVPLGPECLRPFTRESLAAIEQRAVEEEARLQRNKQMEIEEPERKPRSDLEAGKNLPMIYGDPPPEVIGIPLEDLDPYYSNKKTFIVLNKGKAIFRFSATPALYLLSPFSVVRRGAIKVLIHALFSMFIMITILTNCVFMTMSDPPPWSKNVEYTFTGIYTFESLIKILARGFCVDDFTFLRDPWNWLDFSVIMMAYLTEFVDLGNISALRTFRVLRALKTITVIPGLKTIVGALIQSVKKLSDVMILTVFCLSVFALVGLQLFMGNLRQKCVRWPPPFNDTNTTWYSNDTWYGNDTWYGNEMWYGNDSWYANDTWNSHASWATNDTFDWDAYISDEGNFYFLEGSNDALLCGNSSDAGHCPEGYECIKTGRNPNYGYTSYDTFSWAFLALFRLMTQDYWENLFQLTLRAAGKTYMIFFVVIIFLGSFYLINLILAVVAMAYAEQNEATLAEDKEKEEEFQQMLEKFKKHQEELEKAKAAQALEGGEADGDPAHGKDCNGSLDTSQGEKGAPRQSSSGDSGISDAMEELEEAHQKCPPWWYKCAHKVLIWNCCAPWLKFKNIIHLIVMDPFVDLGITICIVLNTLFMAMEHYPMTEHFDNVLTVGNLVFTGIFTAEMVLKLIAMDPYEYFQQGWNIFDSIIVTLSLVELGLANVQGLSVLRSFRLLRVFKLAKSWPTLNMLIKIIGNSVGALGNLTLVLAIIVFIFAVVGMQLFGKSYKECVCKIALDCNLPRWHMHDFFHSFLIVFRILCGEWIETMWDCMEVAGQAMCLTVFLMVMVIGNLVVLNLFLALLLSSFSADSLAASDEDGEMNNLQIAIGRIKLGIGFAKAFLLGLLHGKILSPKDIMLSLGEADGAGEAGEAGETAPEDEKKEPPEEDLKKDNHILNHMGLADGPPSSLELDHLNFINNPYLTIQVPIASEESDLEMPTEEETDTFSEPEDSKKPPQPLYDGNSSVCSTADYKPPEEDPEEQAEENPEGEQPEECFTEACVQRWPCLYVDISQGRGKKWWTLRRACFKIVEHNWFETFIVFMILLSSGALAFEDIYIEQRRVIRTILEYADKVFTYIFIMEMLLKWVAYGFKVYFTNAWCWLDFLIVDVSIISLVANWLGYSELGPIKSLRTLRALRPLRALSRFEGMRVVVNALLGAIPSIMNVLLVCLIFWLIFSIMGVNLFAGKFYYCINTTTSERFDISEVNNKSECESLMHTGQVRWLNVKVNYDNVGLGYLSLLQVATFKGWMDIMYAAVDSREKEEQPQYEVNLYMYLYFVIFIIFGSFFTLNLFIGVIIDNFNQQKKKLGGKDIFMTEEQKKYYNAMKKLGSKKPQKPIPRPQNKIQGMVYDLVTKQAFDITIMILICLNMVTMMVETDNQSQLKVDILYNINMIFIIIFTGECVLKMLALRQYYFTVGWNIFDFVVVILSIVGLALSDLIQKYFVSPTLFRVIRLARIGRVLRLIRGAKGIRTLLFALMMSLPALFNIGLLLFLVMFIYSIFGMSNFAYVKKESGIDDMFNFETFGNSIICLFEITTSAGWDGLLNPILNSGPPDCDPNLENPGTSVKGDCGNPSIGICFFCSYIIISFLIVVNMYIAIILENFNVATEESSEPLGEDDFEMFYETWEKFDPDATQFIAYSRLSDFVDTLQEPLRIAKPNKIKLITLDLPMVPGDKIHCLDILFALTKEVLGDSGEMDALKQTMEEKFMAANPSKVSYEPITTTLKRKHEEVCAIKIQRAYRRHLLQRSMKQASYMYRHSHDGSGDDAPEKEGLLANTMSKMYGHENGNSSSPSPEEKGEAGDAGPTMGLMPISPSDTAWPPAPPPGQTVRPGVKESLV
In experiment [5] the target is hNav1.6 (Homo sapiens, UniProt Q9UQD0). The class given is cell-based. Particulars: Table 15; for Nav1.6/Nav1.7: ratio of PX tonic IC50 values; for IC50: read-out: PX hNav1.6 Tonic IC50.
Setting [6] is: Table 12, PatchXpress, tonic block.

“And” between values parts separate entries of the source, which are not always exact repeats. Identical values can stand only once. Like-named read-outs stand apart in the source and are kept apart here. Where only a bound is given, the exact number is not on record here.

T1 sequence (Q15858 whole entry): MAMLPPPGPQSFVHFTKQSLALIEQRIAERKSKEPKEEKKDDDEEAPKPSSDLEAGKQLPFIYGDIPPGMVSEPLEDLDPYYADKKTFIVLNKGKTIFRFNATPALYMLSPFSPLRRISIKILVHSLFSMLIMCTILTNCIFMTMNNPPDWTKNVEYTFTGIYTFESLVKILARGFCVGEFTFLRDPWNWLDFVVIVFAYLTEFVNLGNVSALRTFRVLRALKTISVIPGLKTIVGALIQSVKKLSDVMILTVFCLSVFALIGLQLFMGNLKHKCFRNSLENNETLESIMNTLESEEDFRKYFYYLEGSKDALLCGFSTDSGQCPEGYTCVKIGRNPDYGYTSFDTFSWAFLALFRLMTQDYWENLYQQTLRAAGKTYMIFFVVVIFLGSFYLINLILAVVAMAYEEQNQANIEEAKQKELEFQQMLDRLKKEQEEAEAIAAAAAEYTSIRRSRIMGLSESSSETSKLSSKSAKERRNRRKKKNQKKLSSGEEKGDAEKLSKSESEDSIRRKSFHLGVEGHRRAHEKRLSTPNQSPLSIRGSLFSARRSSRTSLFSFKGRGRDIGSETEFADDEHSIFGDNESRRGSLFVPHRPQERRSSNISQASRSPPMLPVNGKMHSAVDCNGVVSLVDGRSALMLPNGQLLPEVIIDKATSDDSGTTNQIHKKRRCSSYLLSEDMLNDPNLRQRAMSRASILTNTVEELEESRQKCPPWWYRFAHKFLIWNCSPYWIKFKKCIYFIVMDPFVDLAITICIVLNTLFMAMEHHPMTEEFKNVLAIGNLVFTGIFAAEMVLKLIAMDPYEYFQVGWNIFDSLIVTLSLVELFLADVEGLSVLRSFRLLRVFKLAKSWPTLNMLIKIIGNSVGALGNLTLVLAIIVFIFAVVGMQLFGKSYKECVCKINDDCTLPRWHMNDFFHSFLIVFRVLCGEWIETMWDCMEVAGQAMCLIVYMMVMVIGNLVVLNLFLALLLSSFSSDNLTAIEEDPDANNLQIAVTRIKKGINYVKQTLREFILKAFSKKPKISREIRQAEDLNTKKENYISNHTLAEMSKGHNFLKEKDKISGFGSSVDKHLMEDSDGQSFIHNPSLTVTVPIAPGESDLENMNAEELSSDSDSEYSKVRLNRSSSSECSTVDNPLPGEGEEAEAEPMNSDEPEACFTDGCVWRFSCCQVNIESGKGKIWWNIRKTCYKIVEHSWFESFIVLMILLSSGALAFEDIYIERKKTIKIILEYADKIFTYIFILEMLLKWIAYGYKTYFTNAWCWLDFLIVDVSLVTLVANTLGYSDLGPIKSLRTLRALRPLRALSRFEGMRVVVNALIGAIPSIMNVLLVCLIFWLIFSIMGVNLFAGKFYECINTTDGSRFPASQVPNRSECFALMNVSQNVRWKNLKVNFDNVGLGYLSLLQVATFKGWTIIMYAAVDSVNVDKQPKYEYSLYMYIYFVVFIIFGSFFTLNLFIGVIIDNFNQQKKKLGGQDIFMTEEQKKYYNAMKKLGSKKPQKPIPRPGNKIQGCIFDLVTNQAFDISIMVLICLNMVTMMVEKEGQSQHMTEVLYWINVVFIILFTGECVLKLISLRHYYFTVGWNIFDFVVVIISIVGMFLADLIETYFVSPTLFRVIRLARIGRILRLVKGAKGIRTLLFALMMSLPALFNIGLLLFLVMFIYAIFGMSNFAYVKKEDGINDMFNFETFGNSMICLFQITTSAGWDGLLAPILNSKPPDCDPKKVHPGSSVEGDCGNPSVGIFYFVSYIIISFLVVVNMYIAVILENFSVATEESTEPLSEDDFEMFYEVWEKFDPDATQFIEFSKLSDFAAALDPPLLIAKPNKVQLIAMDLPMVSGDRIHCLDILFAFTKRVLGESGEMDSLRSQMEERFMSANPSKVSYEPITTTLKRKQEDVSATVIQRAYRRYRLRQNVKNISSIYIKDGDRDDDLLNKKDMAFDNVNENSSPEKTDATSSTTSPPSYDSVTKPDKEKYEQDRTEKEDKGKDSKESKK

Consider `CC[C@H](C)[C@H](NC(=O)[C@@H](NC(=O)[C@H](CCCCN)NC(=O)[C@H](CCCNC(=N)N)NC(=O)[C@@H]1CSSC[C@@H]2NC(=O)[C@H](C)NC(=O)[C@H](CCCNC(=N)N)NC(=O)[C@H](CCCCN)NC(=O)[C@H](CO)NC(=O)[C@H](CC(=O)O)NC(=O)[C@@H]3CSSC[C@H](NC(=O)[C@H](CCCNC(=N)N)NC(=O)[C@H](CC(C)C)NC(=O)CNC(=O)[C@H](CCC(=O)O)NC(=O)[C@H](CSSC[C@H](NC(=O)[C@@H](N)Cc4ccc(O)cc4)C(=O)N[C@@H](CCC(N)=O)C(=O)N[C@@H](CCCCN)C(=O)N[C@@H](Cc4c[nH]c5ccccc45)C(=O)N[C@@H](CCSC)C(=O)N[C@@H](Cc4c[nH]c5ccccc45)C(=O)N[C@@H]([C@@H](C)O)C(=O)N3)NC2=O)C(=O)N[C@@H](CCCCN)C(=O)N[C@@H](CC(C)C)C(=O)N[C@@H](Cc2c[nH]c3ccccc23)C(=O)N1)[C@@H](C)CC)C(=O)O` [compound 1], for which the half-maximal inhibitory concentration (IC50) is 0.17 µM in experiment [1] (read-out: IC50 (μM) Nav1.7); greater than 5 µM in experiment [2] (IonWorks Quattro, Table 6); 13.1 nM in experiment [3] (PatchXpress, tonic, Table 11).
For `CC[C@H](C)[C@H](NC(=O)CNC(=O)[C@H](CCCCN)NC(=O)[C@H](CCCNC(=N)N)NC(=O)[C@@H]1CSSC[C@@H]2NC(=O)[C@H](C)NC(=O)[C@H](CCCNC(=N)N)NC(=O)[C@H](CCCCN)NC(=O)[C@H](CO)NC(=O)[C@H](CC(=O)O)NC(=O)[C@@H]3CSSC[C@H](NC(=O)[C@H](CCC(=O)O)NC(=O)[C@H](CC(C)C)NC(=O)CNC(=O)[C@H](CCC(=O)O)NC(=O)[C@H](CSSC[C@H](NC(=O)[C@@H](N)Cc4ccc(O)cc4)C(=O)N[C@@H](CCC(N)=O)C(=O)N[C@@H](CCCCN)C(=O)N[C@@H](Cc4c[nH]c5ccccc45)C(=O)N[C@@H](CCSC)C(=O)N[C@@H](Cc4c[nH]c5ccccc45)C(=O)N[C@@H]([C@@H](C)O)C(=O)N3)NC2=O)C(=O)N[C@@H](CCCCN)C(=O)N[C@@H](CC(C)C)C(=O)N[C@@H](Cc2c[nH]c3ccccc23)C(=O)N1)C(N)=O` [compound 134], the Nav1.4/Nav1.7 in experiment [1] (ratio of IonWorks Quattro IC50 values, Nav1.4 over Nav1.7) is 17 and 13. In addition, in experiment [2], the IC50 turned out to be 11.1 µM.
`C#CC[C@H](N)C(=O)N[C@@H](CCC(=O)O)C(=O)N[C@H]1CSSC[C@@H]2NC(=O)[C@@H]3CSSC[C@@H](C(=O)N[C@@H](CCCNC(=N)N)C(=O)N[C@@H](CCCCN)C(=O)N[C@@H](CCC(=O)O)C(=O)N[C@H](C(N)=O)[C@@H](C)CC)NC(=O)[C@H](Cc4c[nH]c5ccccc45)NC(=O)[C@H](CC(C)C)NC(=O)[C@H](CCCCN)NC(=O)[C@H](CSSC[C@H](NC(=O)[C@H]([C@@H](C)O)NC(=O)[C@H](Cc4c[nH]c5ccccc45)NC(=O)[C@H](CCCC)NC(=O)[C@H](Cc4c[nH]c5ccccc45)NC(=O)[C@H](CCCCN)NC(=O)[C@H](CCC(N)=O)NC1=O)C(=O)N[C@@H](CC(=O)O)C(=O)N[C@@H](CO)C(=O)N[C@@H](CCC(=O)O)C(=O)N[C@@H](CCCNC(=N)N)C(=O)N[C@@H](C)C(=O)N3)NC(=O)[C@H](CCCNC(=N)N)NC(=O)[C@H](CC(C)C)NC(=O)CNC(=O)[C@H](CCC(=O)O)NC2=O` [compound 742]: in experiment [3] (setting [6]), the IC50 turned out to be 4.14 nM. Moreover, in experiment [4], the IC50 amounted to 1720 nM and the Nav1.4/Nav1.7 worked out at 416. For the same compound, in experiment [5], the Nav1.6/Nav1.7 was 333 and the IC50 is 1380 nM.
The like results for `C#CC[C@H](N)C(=O)N[C@@H](CCC(=O)O)C(=O)N[C@H]1CSSC[C@@H]2NC(=O)[C@@H]3CSSC[C@@H](C(=O)N[C@@H](CCCNC(=N)N)C(=O)N[C@@H](CCCCN)C(=O)N[C@@H](CCC(=O)O)C(=O)N[C@H](C(N)=O)[C@@H](C)CC)NC(=O)[C@H](Cc4c[nH]c5ccccc45)NC(=O)[C@H](CC(C)C)NC(=O)[C@H](CCCCN)NC(=O)[C@H](CSSC[C@H](NC(=O)[C@H]([C@@H](C)O)NC(=O)[C@H](Cc4c[nH]c5ccccc45)NC(=O)[C@H](CCCC)NC(=O)[C@H](Cc4c[nH]c5ccccc45)NC(=O)[C@H](CCCCN)NC(=O)[C@H](CCC(N)=O)NC1=O)C(=O)N[C@@H](CC(=O)O)C(=O)N[C@@H](CO)C(=O)N[C@@H](CCCCN)C(=O)N[C@@H](CCCNC(=N)N)C(=O)N[C@@H](CCC(=O)O)C(=O)N3)NC(=O)[C@H](CCCNC(=N)N)NC(=O)[C@H](CC(C)C)NC(=O)CNC(=O)[C@H](CCC(=O)O)NC2=O` [compound 743] were, in that order, 1.36 nM, 670 nM, 494, 1727 and 2340 nM.
On to `C#CC[C@H](N)C(=O)N[C@@H](Cc1ccc(O)cc1)C(=O)N[C@H]1CSSC[C@@H]2NC(=O)[C@@H]3CSSC[C@@H](C(=O)N[C@@H](CCCNC(=N)N)C(=O)N[C@@H](CCCCN)C(=O)N[C@@H](CCC(=O)O)C(=O)N[C@H](C(N)=O)[C@@H](C)CC)NC(=O)[C@H](Cc4c[nH]c5ccccc45)NC(=O)[C@H](CC(C)C)NC(=O)[C@H](CCCCN)NC(=O)[C@H](CSSC[C@H](NC(=O)[C@H]([C@@H](C)O)NC(=O)[C@H](Cc4c[nH]c5ccccc45)NC(=O)[C@H](CCCC)NC(=O)[C@H](Cc4c[nH]c5ccccc45)NC(=O)[C@H](CCCCN)NC(=O)[C@H](CCC(N)=O)NC1=O)C(=O)N[C@@H](CC(=O)O)C(=O)N[C@@H](CCC(=O)O)C(=O)N[C@@H](CCC(=O)O)C(=O)N[C@@H](CCCNC(=N)N)C(=O)N[C@@H](C)C(=O)N3)NC(=O)[C@H](CCCNC(=N)N)NC(=O)[C@H](CC(C)C)NC(=O)CNC(=O)[C@H](CCC(=O)O)NC2=O` [compound 744], for which the figures for the IC50 in experiment [3] (setting [6]), in experiment [4] and in experiment [5] were 3.8 nM, 1420 nM and 825 nM, respectively. Also, the Nav1.4/Nav1.7 in experiment [4] came out at 374. In addition, the Nav1.6/Nav1.7 in experiment [5] was found to be 217.
Consider `C#CC[C@H](NC(=O)[C@@H](N)CCC(=O)O)C(=O)N[C@H]1CSSC[C@@H]2NC(=O)[C@@H]3CSSC[C@@H](C(=O)N[C@@H](CCCNC(=N)N)C(=O)N[C@@H](CCCCN)C(=O)N[C@@H](CCC(=O)O)C(=O)N[C@H](C(N)=O)[C@@H](C)CC)NC(=O)[C@H](Cc4c[nH]c5ccccc45)NC(=O)[C@H](CC(C)C)NC(=O)[C@H](CCCCN)NC(=O)[C@H](CSSC[C@H](NC(=O)[C@H]([C@@H](C)O)NC(=O)[C@H](Cc4c[nH]c5ccccc45)NC(=O)[C@H](CCCC)NC(=O)[C@H](Cc4c[nH]c5ccccc45)NC(=O)[C@H](CCCCN)NC(=O)[C@H](CCC(N)=O)NC1=O)C(=O)N[C@@H](CC(=O)O)C(=O)N[C@@H](CCC(=O)O)C(=O)N[C@@H](CCC(=O)O)C(=O)N[C@@H](CCCNC(=N)N)C(=O)N[C@@H](C)C(=O)N3)NC(=O)[C@H](CCCNC(=N)N)NC(=O)[C@H](CC(C)C)NC(=O)CNC(=O)[C@H](CCC(=O)O)NC2=O` [compound 748], for which the IC50 in experiment [3] (setting [6]) came out at 6.66 nM. Further, in experiment [4], the IC50 was 2150 nM and the Nav1.4/Nav1.7 amounted to 323. Moreover, in experiment [5], the Nav1.6/Nav1.7 was determined as 410 and the IC50 was 2730 nM.
On the same counts, the results for `C#CC[C@H](NC(=O)[C@@H](N)CCC(=O)O)C(=O)N[C@H]1CSSC[C@@H]2NC(=O)[C@@H]3CSSC[C@@H](C(=O)N[C@@H](CCCNC(=N)N)C(=O)N[C@@H](CCCCN)C(=O)N[C@@H](CCC(=O)O)C(=O)N[C@H](C(N)=O)[C@@H](C)CC)NC(=O)[C@H](Cc4c[nH]c5ccccc45)NC(=O)[C@H](CC(C)C)NC(=O)[C@H](CCCCN)NC(=O)[C@H](CSSC[C@H](NC(=O)[C@H]([C@@H](C)O)NC(=O)[C@H](Cc4c[nH]c5ccccc45)NC(=O)[C@H](CCCC)NC(=O)[C@H](Cc4c[nH]c5ccccc45)NC(=O)[C@H](CCCCN)NC(=O)[C@H](CCC(N)=O)NC1=O)C(=O)N[C@@H](CC(=O)O)C(=O)N[C@@H](CCC(=O)O)C(=O)N[C@@H](CCCCN)C(=O)N[C@@H](CCCNC(=N)N)C(=O)N[C@@H](CCC(=O)O)C(=O)N3)NC(=O)[C@H](CCCNC(=N)N)NC(=O)[C@H](CC(C)C)NC(=O)CNC(=O)[C@H](CCC(=O)O)NC2=O` [compound 750] are 2.91 nM, 1190 nM, 411, greater than 3442 and greater than 10000 nM.
On to `C#CC[C@H](N)C(=O)N[C@@H](Cc1ccc(O)cc1)C(=O)N[C@H]1CSSC[C@@H]2NC(=O)[C@@H]3CSSC[C@@H](C(=O)N[C@@H](CCCNC(=N)N)C(=O)N[C@@H](CCCCN)C(=O)N[C@@H](CCC(=O)O)C(=O)N[C@H](C(N)=O)[C@@H](C)CC)NC(=O)[C@H](Cc4c[nH]c5ccccc45)NC(=O)[C@H](CC(C)C)NC(=O)[C@H](CCCCN)NC(=O)[C@H](CSSC[C@H](NC(=O)[C@H]([C@@H](C)O)NC(=O)[C@H](Cc4c[nH]c5ccccc45)NC(=O)[C@H](CCCC)NC(=O)[C@H](CCc4ccccc4)NC(=O)[C@H](CCCCN)NC(=O)[C@H](CCC(N)=O)NC1=O)C(=O)N[C@@H](CC(=O)O)C(=O)N[C@@H](CO)C(=O)N[C@@H](CCCCN)C(=O)N[C@@H](CCCNC(=N)N)C(=O)N[C@@H](C)C(=O)N3)NC(=O)[C@H](CCCNC(=N)N)NC(=O)[C@H](CC(C)C)NC(=O)CNC(=O)[C@H](CCC(=O)O)NC2=O` [compound 844], for which the IC50 was 0.599 nM in experiment [3] (setting [6]), 0.599 nM in experiment [3] (Table 15) and 258 nM in experiment [4]. The Nav1.4/Nav1.7 in experiment [4] turned out to be 431. In addition, in experiment [5], the Nav1.6/Nav1.7 came out at 1666.
